Test results from patent publication US20100075993A1, “SMALL MOLECULE INHIBITORS AGAINST WEST NILE VIRUS REPLICATION” (DREXEL UNIVERSITY, priority 2005, published 2010).

Assays:
WNV replicon = WNV replicon luciferase assay in BHK 26.5 cells (HTS, re-test, IC50); assay type: cell-based, West Nile virus
Method: Ten micromolar concentrations of a selected compound were incubated with BHK 26.5 cells expressing luciferase whose activity is dependent upon WNV replicon replication (FIG. 1A). Primary “hits” were defined by the ability to reduce the amount of luciferase enzyme activity by more than 50%, compared to controls.
To quantify and rank the activity of the 23 remaining compound “hits”, a serial dilution of each compound was incubated with WNV replicon cells to determine the concentration that inhibits 50% of the luciferase readout (IC50s). […] A number of compounds had significant effect only at the highest, 10 μM concentration. However, several compounds had IC50s between 2 and 5 (Table 3), which is very reasonable for primary HTS hits from a compound library. Only a few compounds could cause 90% inhibition in the replicon cells at the concentrations tested.
(§1) Replicon-harboring cells were plated 96-well plates at 10,000 cells per well in MEM plus 3% FBS. 24 hours after plating, compounds were added to the wells by a Robotic liquid handler (Biomek NX) to a final concentration of 10 μM and 1% DMSO. For each 96 well plate, A1 to A8 were left open, H1 to H4 contained 1% DMSO, H5-H8 contained Mycophenolic acid (Sigma-Aldrich, St. Louis, Mo.), which was included as positive controls. After 24 hours of treatment, the media were removed and the luciferase activity expressed in the replicon cells was quantified. When cyto-toxicity was measured, duplicate 96 well plates were plated with BHK 26.5 replicon cells. One plate was used for luciferase assay and one plate was used for measuring toxicity using MTT assay.
Luciferase assay was performed by using the STEADY GLO reagent (Promega Corp. Madison, Wis.) according to the manufacturer's recommendation with slight modifications. Briefly, the culture media from the 96 wells were removed by dumping on paper towels.
100 μl of a 1:1 mixture of luciferase regent and culture media were added to the plate. After 5-minute incubation, the luminescence was read on a TOPCOUNT (PerkinElmer, Wellesley, Mass.).

BHK 26.5 replicon cells = experiment: MTT toxicity assay on BHK 26.5 replicon cells; assay type: cell-based
Source text: The HTS strategy follows the flowchart outlined in FIG. 2. 35,000 compounds were screened from a chemical library described below, using a cutoff of 50% reduction in luminescence readout as the criteria for further study. Upon completion of the screen, approximately 1100 compounds were selected, making the hit rate of 3%. This is considerably higher than expected, implying many false positive and/or cytotoxic compounds. Nevertheless, the compounds were picked out from the “daughter” plates and re-checked at a single 10 μM concentration. In addition, a duplicate 96 well plates were also plated and the toxicity of the compounds was determined in an MTT assay. Upon completion of these assays, most compounds were disqualified as either false positives or being toxicity to cells. As a result, only a small number of compounds were further analyzed directly from the “mother” plate stock. After IC50 determination and secondary assay to rule out luciferase inhibitors, 23 “hits” were identified.
as §1
(§2) Compound toxicity was determined by MTT assay. For the MTT assay, the cell medium was removed and the monolayers were incubated with 100 μl/well of 0.5 mg/ml MTT for 6 h at 37° C. The MTT solution was then aspirated and 100 μl/well of the 10% SDS (in 0.01N HCl) was added, followed by spectrophotometric quantitation (570 nm) of the insoluble MIT reaction product.

WNV = WNV yield reduction assay (live virus) on BHK cells; assay type: cell-based, West Nile virus
Method: The antiviral assay for the 309-F6 compounds was conducted on BHK cells. The virus produced in the presence of 1% DMSO or various concentrations of compounds was tittered on Vero cells. The amount of virus relative to the 1% DMSO control was plotted on the y-axis; the concentration of the compound 309F6 is shown in μM on the x-axis. Data from two independently treated wells (Test 1 and Test 2) are shown.
To measure activity against live WNV, BHK cells were plated in 96-well plates at a concentration of 12,000 cells/well. One day later the cells were infected with WNV for 1 h at an MOI of 0.05. The cells were then washed once and re-fed with fresh DMEM containing dilutions of the test compound. Plates were then incubated at 37° C. for 48 h, the supernatant collected and the WNV produced titered. For virus titration, Vero cells were plated in 96-well plates at 8000 cells/well and incubated overnight. The Vero cell monolayer were then infected for 1 h with various dilutions of the WNV supernatant, overlaid with media containing 0.6% tragacanth (ICN, CA) and incubated at 37° C. for 48 h. The culture media was then aspirated; the plate was rinsed, air-dried, and fixed with 50 μl/well acetone/methanol (50:50). Viral foci were detected for enumeration by immunostaining as described previously (15).

[1] = toxicity (MTT, CC50) in BHK cells parallel to WNV infection assay; assay type: cell-based; conditions: hamster; highest concentration used 40 μM
Method: (§3) Several of these original compounds selected from the WNV replicon based screen were evaluated in an antiviral assay against WNV live virus. […] Modifications of this compound would be further investigated
(§4) The toxicity of 101-G7 was also measured by MTT assay and CC50 was calculated. 40 μM is highest concentration used.
as §2

BHK cells = experiment: as above; assay type: cell-based; conditions: MTT assay, 40 μM highest concentration used; read-out: Tox CC50
Method: as §3, §4, §2

luciferase enzyme = target: T1, luciferase enzyme (Photinus pyralis, UniProt P08659); experiment: in vitro luciferase enzyme assay with cell lysates; assay type: biochemical; conditions: lysate of WNV replicon cell, 30 minutes incubation, up to 10 μM
T1 construct: expressed in transfected cells; host or cells: BHK 26.5 (BHK cells harbouring the WNV subgenomic replicon with the Luc gene); used as cell lysate
Method: In two separate experiments, compounds were either tested with 3, 5, 10 μM or only 10 μM concentrations. The luciferase enzyme cell lysates were incubated with the indicated compounds for 30 minutes before luciferase substrate was added and the luminescence was measured. 1% DMSO was used as controls.
Although the initial HTS and the repeat assays have identified a number of compounds capable of reducing the luciferase activity produced in the WNV replicon BHK 26.5 cell line. It is conceivable that some of these inhibitors could have inhibited the luciferase enzyme itself rather than the WNV viral replication. To rule out this possibility, the identified compounds were tested in an in vitro luciferase enzyme assay by incubating the compounds with cell lysates prepared from the WNV replicon cell. […] The inhibition was not observed when the compounds were added immediately before luminescence reading, but after a 30-minute incubation of […] and the cell lysate, indicating a direct inhibition of the luciferase enzyme by the compounds.

WNV NS3 protein = experiment: Western blot of WNV protein in compound treated replicon cells; assay type: cell-based, West Nile virus; conditions: 48-hour treatment, up to 10 uM; MPA 2.5 ug/ml
Method: Mycophenolic acid (MPA) was used as positive control in the experiment. 4×10^4 cells were seeded in 24 well plates 24 hours before the various concentrations of compounds were added. After 48 hours of drug treatment, SDS-Sample buffer were added to the wells to lyse the cells. The protein samples were separated on SDS-PAGE and transferred to PVDF membrane. Viral protein was detected by probing with a monoclonal antibody against WNV. The same membrane was stripped and probed for beta-actin with the signals shown at the bottom of the blot.
Although it is reassuring that multiple tests have yielded similar positive results, the ability of the compounds to inhibit WNV replication was further assessed in secondary assays. In the western blot analysis shown in FIG. 5, total cell proteins were prepared from WNV replicon cells treated with the hit compounds and the viral protein NS3 was detected with a monoclonal […] against West Nile virus (15). The same blots were stripped and probed for beta-actin to show equal loading. […] When compared with the IC50 determined for these compounds in the luciferase assay, there was a good correlation between the luciferase reduction and the viral protein reduction.
Total cell lysates from replicon cells were harvested from replicon cells in 1×SDS sample buffer. The lysates were heated at 70° C. for 10 min in the presence of DTT before electrophoresis on a 10% Tris-glycine SDS polyacrylamide gel (Invitrogen) in 1× Tris-glycine buffer. The protein was transferred to PVDF (Invitrogen) membrane. Following the transfer, the membrane was rinsed once with TBS containing 0.5% Tween-20 (TBS-Tween) and blocked in TBS-Tween containing 5% non-fat milk for 1 h. After washing with PBS-Tween, the membrane was incubated with the primary WNV antibody (15) at 1:3000 dilutions for 1 h at 25° C. Prior to incubation with HRP conjugated-mouset IgG secondary antibody (Amersham, Life Science, Piscataway, N.J.) diluted 1:5000, the blot was washed in PBS-Tween. Following the secondary antibody incubation, the blot was washed again and treated with Super Signal Chemiluminescent Reagent (Pierce) according to the manufacturer's protocol and exposed to X-ray film. For controls, the blots were stripped and re-probed with an antibody to beta-actin (Chemicon), which was detected with a goat anti-mouse horseradish peroxidase conjugate.

WNV RNA = experiment: Northern blot of WNV RNA in compound treated replicon cells; assay type: cell-based, West Nile virus; conditions: 48-hour treatment, compounds 10 μM, MPA 2.5%
Method: FIG. 6 is a picture of a Northern blot gel of compound treated WNV replicon cells. 4×10^4 cells were seeded in 24 well plates. After 24 hours, the cells were treated with DMSO (lanes 2, 3) or the non-specific inhibitors, MPA (lane 1) or the compounds […] (lane 4), 18-B3 (lane 5) or 52-F2 (lane 6). After 48 hours, total RNA were isolated, separated on denaturing agrose gels and transferred to nylon membrane. Total RNA from a non-replicon cell (Huh-7 cell) was loaded in lane 7 as negative control. The membrane was probed with [^32P]-dCTP-labeled WNV NS5 and human beta-actin. The signal was quantified using a BioRad phosphoimager and WNV RNA level was calculated using beta-actin as a reference.
To confirm that the compounds can indeed inhibit WNV RNA replication, the WNV RNA level in the replicon cells treated with compounds by Northern blot analysis. Several hit compounds, 18-B3, 275-F9, 275-D9, 52-F2 and MPA were selected to treat the BHK 26.5 cells at 10 μM. […] The “hit” compounds 18-B3 and 275-F9 reduced WNV RNA by 1.5 and 2 fold, respectively (FIG. 6, lanes 4, 5). 18-B3 is one of the nine compounds that have similar structures while 275-F9 is one from another class of four compounds (Table 3).
Total cellular RNA was extracted by using the RNEASY kit (Qiagen NV, Netherlands). Northern blot analysis was done according to the protocol of Gu et al. 2002 (8). Briefly, 5 μg total RNA was electrophoresed through a 1.0% agarose gel containing 2.2M formaldehyde, transferred to a nylon membrane and immobilized by UV cross-linking (Stratagene, La Jolla, Calif.). After pre-hybridization in 5 ml of QuickHyb (Amersham, Piscataway, N.J. GE Healthcare, Giles, UK), [2P] dCTP-labeled probe made by random primer labeling of a 2.7 kb NS5 DNA fragment and a human beta-actin DNA at 65° C. The membrane was washed twice in 2×SSC/0.1% SDS for 10 min at room temperature and twice in 0.1×SSC/0.1% SDS for 15 min at 68° C. Membranes were exposed to Molecular Imager FX phosphoimager (BioRad, Hercules, Calif.) and the radiographic signals were collected and quantitated.

T1 sequence (P08659 whole entry): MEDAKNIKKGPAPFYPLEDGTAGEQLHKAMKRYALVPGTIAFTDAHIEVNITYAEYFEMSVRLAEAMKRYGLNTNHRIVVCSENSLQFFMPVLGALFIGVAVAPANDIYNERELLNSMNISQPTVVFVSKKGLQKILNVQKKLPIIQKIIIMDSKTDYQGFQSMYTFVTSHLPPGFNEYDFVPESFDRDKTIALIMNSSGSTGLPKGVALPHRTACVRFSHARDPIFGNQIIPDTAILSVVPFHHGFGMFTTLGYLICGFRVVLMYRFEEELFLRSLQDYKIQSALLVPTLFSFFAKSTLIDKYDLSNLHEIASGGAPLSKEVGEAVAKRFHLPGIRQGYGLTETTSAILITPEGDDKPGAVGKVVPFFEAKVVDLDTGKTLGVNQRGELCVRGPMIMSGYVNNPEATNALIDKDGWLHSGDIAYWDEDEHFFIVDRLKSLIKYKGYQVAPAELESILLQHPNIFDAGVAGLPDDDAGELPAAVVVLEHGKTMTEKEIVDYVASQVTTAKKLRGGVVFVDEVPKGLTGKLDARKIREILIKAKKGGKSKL

| SMILES | IC50 (WNV replicon; West Nile virus, 24 h) [µM] | Fold decrease (HTS) (WNV replicon; luciferase activity, 10 μM compound, 24 hours, BHK 26.5 cells) [Fold] | Fold decrease (Re-test) (WNV replicon; luciferase activity, re-checked at a single 10 μM concentration) [Fold] | reducing the luciferase activity of the WNV replicon cell (WNV replicon; re-synthesized compound, 24 and 48 hour incubation) | Toxicity (uM)* (BHK 26.5 replicon cells; MTT assay) [µM] | toxicity in replicon assays (BHK 26.5 replicon cells; re-synthesized compound, MTT) | IC50 (WNV; West Nile virus, BHK, read-out: IC50 in WNV infection assay, re-synthesized, three independent experiments in duplicate) [µM] | activity in the WNV infection assay (WNV; live WNV) | CC50 [1] [µM] | CC50 (BHK cells) [µM] | luciferase enzyme activity in cell lysate (luciferase enzyme) | WNV NS3 protein level (western blot) (WNV NS3 protein) | WNV RNA reduction (WNV RNA) |
| --- | --- | --- | --- | --- | --- | --- | --- | --- | --- | --- | --- | --- | --- |
| Cc1ccc(-c2csc(Nc3ccc(S(=O)(=O)Nc4cc(C)on4)cc3)n2)cc1 [Compound 101-G7, N-(5-Methyl-isoxazol-3-yl)-4-(4-p-tolyl-thiazol-2-ylamino)-benzenesulfonamide] | 5 | 6 | 2 | good activity | >10 | about 80 μM | 3 to 15 | retained activity | > 40 | > 40 | – | – | – |
| COc1c(C)c2c(c(O)c1C/C=C(\C)CCC(=O)O)C(=O)OC2 [MPA, Mycophenolic acid, reference compound] | – | – | – | – | – | – | – | – | – | – | did not reduce the luciferase activity | reduced WNV NS3 protein level | more than five fold |
